Experimental data: US12692253B2, “Antimicrobial compounds and methods” (Curza Global, LLC, priority 2019, dated 2026)

What was measured:
[1] = test system: E. coli S30 extract (bacterial protein synthesis); experiment: E. coli S30 extract coupled transcription-translation luciferase assay (inhibition of bacterial protein synthesis); format: biochemical; details: class by IC50 or % inhibition @ 1 μM, read-out: S30 IC50 (μM/% inhib.)
Method: E. coli S30 extract: Inhibition of bacterial protein synthesis was determined using the E. coli S30 Extract System for Circular DNA (Promega catalog #L-2010) and Luciferase Assay Reagent (Promega catalog #E1500) with slight modifications to a published protocol. Fyfe, C., Sutcliffe, J. A. and Grossman, T. H. (2012) “Development and characterization of a Pseudomonas aeruginosa in vitro coupled transcription-translation assay system for evaluation of translation inhibitors” J. Microbiol. Methods 90(3), 256-261.
Compounds were serial diluted in 0.5 mL microcentrifuge tubes by mixing and transferring 50 μL from the highest concentration to 50 μL of water, mixing and transferring 50 μL of this 2-fold dilution to 50 μL of water. This mixing and transferring was repeated so that there are a total of 8 tubes with serial dilutions of compound at 10× the desired screening concentration that are ultimately diluted to 1× by the addition of S30 luciferase synthesis mixture. Serial dilutions of compounds were added (2 μL) to wells in a black round bottom 96-well plate. Water (2 μL) was used as a “no inhibitor” control in 4 wells/plate. No DNA control reaction mixture (20 μL; see below) was used as a control in 4 wells/plate for background luminescence. S30 luciferase synthesis mixture (18 μL; see below) was added to wells with compounds or water mixture and incubated at 37° C. for 1 hour. Reactions were stopped by transferring to 4° C. refrigerator for 5 minutes then 25 μL of luciferase activity mix was added. Luminescence was measured using a BioTek Synergy HTX plate reader. % Inhibition was determined relative to no inhibitor controls. • S30 luciferase synthesis mixture: • 445 μL S30 extract, circular • 712 μL S30 Premix without amino acids • 4.45 μL pBESTluc™ DNA (1 μg/μL) • 78 μL complete amino acid mixture • 267 μL water • No DNA control: • 20 μL S30 extract, circular • 32 μL S30 Premix without amino acids • 7 μL complete amino acid mixture • 21 μL water Rabbit Reticulocyte lysate

[2] = target: Rabbit Reticulocyte Lysate (eukaryotic protein synthesis); experiment: Rabbit reticulocyte lysate luciferase assay (inhibition of eukaryotic protein synthesis); format: biochemical; details: class by IC50 or % inhibition @ 1 μM, read-out: Rabbit reticulocyte IC50 (μM/% inhib.)
Method: Inhibition of eukaryotic protein synthesis was determined using the Rabbit Reticulocyte Lysate System, Nuclease-Treated from Promega (catalog #L-4960) with slight modifications to the manufacturer's protocol. Compounds were serial diluted in 0.5 mL microcentrifuge tubes by mixing and transferring 50 μL from the highest concentration to 50 μL of water, mixing and transferring 50 μL of this 2-fold dilution to 50 μL of water. This mixing and transferring was repeated so that there are a total of 8 tubes with serial dilutions of compound at 10× the desired screening concentration that are ultimately diluted to 1× by the addition of rabbit reticulocyte luciferase synthesis mixture. Serial dilutions of compounds were added (2.5 μL) to wells in a black round bottom 96-well plate. Water (2.5 μL) was used as a “no inhibitor” control in 4 wells/plate. No RNA control reaction mixture (2 μL; see below) was used as a control in 4 wells/plate for background luminescence. Rabbit reticulocyte luciferase synthesis mixture (22.5 μL; see below) was added to wells with compounds or water mixture and incubated at 30° C. for 90 minutes. Luciferase assay reagent (25 μL) was added with luminescence measured using a BioTek Synergy HTX plate reader. % Inhibition was determined relative to no inhibitor controls.
Rabbit Reticulocyte Luciferase Synthesis Mixture:
• 1,000 μL rabbit reticulocyte lysate • 5.7 μL Luciferase Control RNA (1 μg/μL) • 26 μL complete amino acid mixture • 395 μL water • No RNA Control • 70 μL rabbit reticulocyte lysate • 2 μL complete amino acid mixture • 28 μL water Minimum Inhibitory Concentration (MIC)

E. coli (Ec) = experiment: Broth microdilution minimum inhibitory concentration (MIC), CLSI; format: cell-based; details: growth medium supplemented with sodium bicarbonate; for MIC: Escherichia coli, read-out: E. coli + bicarb MIC
Method: (§1) A certified BSL-2 laboratory was used for testing. Compounds were evaluated using the broth microdilution minimum inhibitory concentration (MIC) and minimum bactericidal concentration (MBC) assays defined by Clinical and Laboratory Standards Institute (CLSI) in the M26-A guideline against S. aureus (Sa), E. coli (Ec), K. pneumoniae (Kp), A. baumannn (Ab), E. faecalis (Ef) and P. aeruginosa (Pa).
(§2) MICs were determined using the Clinical Laboratory and Standards Institute (CLSI) Broth Microdilution Method with slight modification. Clinical and Laboratory Standards Institute (2012). “Methods for dilution antimicrobial susceptibility tests for bacteria that grow aerobically; approved standard, 9th ed. M07-A9 Clinical and Laboratory Standards Institute, Wayne, PA” Serial two-fold dilutions of compounds are prepared in sterile clear round-bottom 96-well plates.
(§3) To prepare microdilution trays, two-fold dilutions of antimicrobial agent are prepared in growth medium: Cation-Adjusted Mueller-Hinton Broth (CAMHB), or CAMHB supplemented with sodium bicarbonate (6.25 or 25 mM final concentration prepared from a 1.0M stock solution) or CAMHB supplemented with heat inactivated human serum (Fisher Cat. #BP2657100) 0-50% by adding 200 µL of the highest concentration to be tested (64 μg/mL, for example) in row A, mixing and transferring 100 μL from row A to 100 μL growth medium in row B, then repeating the mixing and transferring through row H of the 96-well plate, discarding the excess […] remaining. This slight modification to the CLSI protocol enables evaluation of MICs for 3 compounds per plate in triplicate, albeit with only 8 compound dilutions (CLSI protocol enables 2 compounds in triplicate with 10 dilutions). Bacterial suspensions are added to a final concentration of 5×10^4 CFU/well by adding 5 μL of a 1:10 dilution of a 0.5 McFarland suspension (1×10^8 CFU/mL) for each bacterium evaluated. Bacterial suspensions were prepared using the growth method described by CLSI. Well-isolated colonies (3-5 from an agar plate) were selected using a sterile loop and used to inoculate a tube containing 4 mL of CAMHB. The cultures are incubated at 35±2° C. until it achieves or exceeds the turbidity of the 0.5 McFarland standard, determined by measuring A600 (usually two to six hours). When growth exceeds a 0.5 McFarland standard, the turbidity is adjusted with broth to be equivalent to a 0.5 McFarland standard.

P. aeruginosa (Pa) = experiment: as above; format: cell-based; details: Pseudomonas aeruginosa, growth medium supplemented with sodium bicarbonate, read-out: Pa MIC + bicarb
Method: as §1, §2, §3

A. baumannn (Ab) = experiment: as above; format: cell-based; details: Acinetobacter baumannii, read-out: Ab + bicarb MIC
Method: as §1, §2, §3

E. faecalis (Ef) = experiment: as above; format: cell-based; details: Enterococcus faecalis, growth medium supplemented with sodium bicarbonate, read-out: Ef + bicarb MIC
Method: as §1, §2, §3

| Compound | IC50 [1] [µM] | IC50 [2] [µM] | MIC (E. coli (Ec)) [µg/mL] | E. coli + bicarb MIC (E. coli (Ec)) | MIC (P. aeruginosa (Pa)) [µg/mL] | MIC (A. baumannn (Ab)) [µg/mL] | MIC (E. faecalis (Ef)) [µg/mL] |
| --- | --- | --- | --- | --- | --- | --- | --- |
| C[C@](N)(CF)C(=O)N1CCN(C(=O)Nc2ccn(-c3ccc(CN4C[C@@H]5[C@@H](N)[C@@H]5C4)cc3)c(=O)n2)CC1 [Compound 18] | < 0.5 | ≥ 1 | < 8 |  |  |  |  |
| CC(C)(N)C(=O)N1CCN(C(=O)Nc2ccn(-c3ccc(CN4CC5CC5(CN)C4)cc3)c(=O)n2)CC1 (centres unmarked) [Compound 71] | < 0.5 | ≥ 1 | < 8 |  |  |  |  |
| NC[C@H]1[C@@H]2CCN(C(=O)Nc3ccn(-c4ccc(CN5C[C@@H]6[C@@H](N)[C@@H]6C5)cc4)c(=O)n3)C[C@H]12 [Compound 50] | ≥ 1 | ≥ 1 |  | +++ (An MIC value (μg/mL) that is less than 8 μg/mL) |  |  |  |
| CC(C)(N)C(=O)N1CCN(C(=O)Nc2ccn(-c3ccc(CN4C[C@H]5CNC[C@H]5C4)cc3)c(=O)n2)CC1 [Compound 76] | < 0.5 | ≥ 1 | < 8 |  |  |  |  |
| C[C@@H]1CN(C(=O)Nc2ccn(-c3ccc(CN4C[C@@H]5[C@@H](N)[C@@H]5C4)cc3)c(=O)n2)CCN1C(=O)C(C)(C)N [Compound 31] | < 0.5 | ≥ 1 | < 8 |  | > 32 |  |  |
| NC[C@H]1[C@@H]2CCN(C(=O)Nc3ccn(-c4ccc(CN5C[C@@H]6[C@@H](N)[C@@H]6C5)cc4)c(=O)n3)C[C@H]12 [Compound 51] | ≥ 1 | ≥ 1 |  | + (An MIC (μg/mL) value that is 32 μg/mL or greater) |  |  |  |
| CC(C)(N)C(=O)N1CCN(C(=O)Nc2ccn(-c3ccc(CN4CC[C@@H]5[C@@H](CN)[C@@H]5C4)cc3)c(=O)n2)CC1 [Compound 72] | < 0.5 | ≥ 1 | < 8 |  |  |  |  |
| C[C@H]1CN(C(=O)C(C)(C)N)CCN1C(=O)Nc1ccn(-c2ccc(CN3C[C@@H]4[C@@H](N)[C@@H]4C3)cc2)c(=O)n1 [Compound 17] | < 0.5 | ≥ 1 | < 8 |  | > 32 |  |  |
| C[C@](N)(CO)C(=O)N1CCN(C(=O)Nc2ccn(-c3ccc(CN4CCC5(CC4)CC(N)C5)cc3)c(=O)n2)CC1 [Compound 37] | < 0.5 | ≥ 1 | < 8 |  | 8 to 32 |  |  |
| CC(C)(N)C(=O)N1CCN(C(=O)Nc2ccn(-c3ccc(CN4C[C@H](N)C5(CC5)C4)cc3)c(=O)n2)CC1 [Compound 16] | ≥ 1 | ≥ 1 | 8 to 32 |  |  |  |  |
| C[C@](N)(CO)C(=O)N1CCN(C(=O)Nc2ccn(-c3ccc(CN4C[C@@H]5[C@@H](CN)[C@@H]5C4)cc3)c(=O)n2)CC1 [Compound 69] | < 0.5 | ≥ 1 | < 8 |  |  |  |  |
| CC(C)(N)C(=O)N1CCN(C(=O)Nc2ccn(-c3ccc(CN4CCC5(CCC5N)CC4)cc3)c(=O)n2)CC1 (centres unmarked) [Compound 38] | < 0.5 | ≥ 1 |  |  |  | > 32 | 8 to 32 |
| CC(C)(N)C(=O)N1CCN(C(=O)Nc2ccn(-c3ccc(CN4C[C@@H]5[C@@H](N)[C@@H]5C4)c(Cl)c3)c(=O)n2)CC1 [Compound 7] | < 0.5 | ≥ 1 | < 8 |  | > 32 |  |  |
| CC(C)(N)CN1CCN(C(=O)Nc2ccn(-c3ccc(CN4C[C@@H]5[C@@H](N)[C@@H]5C4)cc3)c(=O)n2)CC1=O [Compound 47] | 0.5 to 1 | ≥ 1 | 8 to 32 |  |  |  |  |
| CC(C)(N)C(=O)N1CCN(C(=O)Nc2ccn(-c3ccc(CN4CCC5(CC5N)C4)cc3)c(=O)n2)CC1 (centres unmarked) [Compound 21] | < 0.5 | ≥ 1 | < 8 |  |  |  |  |
| CC(C)(N)C(=O)N1CCN(C(=O)Nc2ccn(-c3ccc(CN4CCC5(CCNCC5)CC4)cc3)c(=O)n2)CC1 [Compound 82] | < 0.5 | ≥ 1 | < 8 |  |  |  |  |
| CC(C)(N)C(=O)N1CCN(C(=O)Nc2ccn(-c3ccc(CN4C[C@@H](N)C5(CC5)C4)cc3)c(=O)n2)CC1 [Compound 19] | 0.5 to 1 | ≥ 1 | < 8 |  |  |  |  |
| CC(C)(N)C(=O)N1CCN(C(=O)Nc2ccn(-c3ccc(CCN4CCC5(CC4)CC(N)C5)cc3)c(=O)n2)CC1 [Compound 91] | < 0.5 | ≥ 1 | < 8 |  | < 8 |  |  |
| CC(C)(N)CN1CCN(C(=O)Nc2ccn(-c3ccc(CN4C[C@@H]5[C@@H](N)[C@@H]5C4)cc3)c(=O)n2)CC1 [Compound 24] | 0.5 to 1 | ≥ 1 | < 8 |  |  |  |  |
| N[C@@H]1[C@H]2CN(Cc3ccc(-n4ccc(NC(=O)N5CCC(C6OCCC[C@@H]6N)CC5)nc4=O)cc3)C[C@@H]12 (some centres unmarked) [Compound 52] | ≥ 1 | ≥ 1 | < 8 |  |  |  |  |
| CC(C)(N)C(=O)N1CCN(C(=O)Nc2ccn(-c3ccc(CN4CC[C@H]5NCC[C@H]5C4)cc3)c(=O)n2)CC1 [Compound 77] | < 0.5 | ≥ 1 | < 8 |  |  |  |  |
| Cc1cc(-n2ccc(NC(=O)N3CCN(C(=O)C(C)(C)N)CC3)nc2=O)ccc1CN1C[C@@H]2[C@@H](N)[C@@H]2C1 [Compound 2] | < 0.5 | ≥ 1 | < 8 |  |  |  |  |
| CC(C)(N)C(=O)N1CCN(C(=O)Nc2ccn(-c3ccc(CN4CCC5(CC4)CC5N)cc3)c(=O)n2)CC1 (centres unmarked) [Compound 39] | < 0.5 | ≥ 1 | < 8 |  |  |  |  |
| CC(N)(C(=O)N1CCN(C(=O)Nc2ccn(-c3ccc(CN4C[C@@H]5[C@@H](N)[C@@H]5C4)cc3)c(=O)n2)CC1)C(F)(F)F (some centres unmarked) [Compound 15] | ≥ 1 |  | > 32 |  |  |  |  |
